Laboratory results reported in the NIST ThermoML archive (doi:10.1016/j.jct.2007.09.004).

Experiments:
[1] = relative permittivity at zero frequency (dimensionless); xn = mol fraction of the nth substance listed; details: 101 kPa, Liquid, Parallel plate capacitor
[2] = xn = mol fraction of the nth substance listed; details: 101 kPa, Liquid
[3] = 101 kPa, Liquid
[4] = relative permittivity at zero frequency (dimensionless); details: 101 kPa, Liquid, Parallel plate capacitor

CCCOCCO [2-propoxyethanol] + OCCOCCOCCOCCO
Details	mass density, 293.15 K [kg/m3]	mass density, 298.15 K [kg/m3]	mass density, 303.15 K [kg/m3]	relative permittivity at zero frequency, 293.15 K	relative permittivity at zero frequency, 298.15 K	relative permittivity at zero frequency, 303.15 K
[1], x1 = 0.05	–	–	–	20.13	19.58	19.01
[1], x1 = 0.1	–	–	–	19.82	19.26	18.68
[1], x1 = 0.2	–	–	–	19.18	18.62	18.05
[1], x1 = 0.3002	–	–	–	18.49	17.95	17.39
[1], x1 = 0.4001	–	–	–	17.73	17.21	16.69
[1], x1 = 0.5003	–	–	–	16.88	16.4	15.91
[1], x1 = 0.6	–	–	–	15.95	15.53	15.07
[1], x1 = 0.7002	–	–	–	14.99	14.61	14.18
[1], x1 = 0.7999	–	–	–	14.01	13.64	13.24
[1], x1 = 0.9	–	–	–	12.96	12.62	12.26
[1], x1 = 0.9501	–	–	–	12.38	12.07	11.73
[1], x1 = 1	–	–	–	11.76	11.5	11.19
[2], x1 = 0.05	1116.81	1113.41	1110.02	–	–	–
[2], x1 = 0.0996	1109.94	1106.38	1102.89	–	–	–
[2], x1 = 0.1997	1095.15	1091.4	1087.69	–	–	–
[2], x1 = 0.3	1079.09	1075.16	1071.19	–	–	–
[2], x1 = 0.4012	1061.43	1057.31	1053.07	–	–	–
[2], x1 = 0.5	1042.6	1038.25	1033.77	–	–	–
[2], x1 = 0.6	1021.64	1017.06	1012.39	–	–	–
[2], x1 = 0.7	998.51	993.75	988.93	–	–	–
[2], x1 = 0.8	973.03	968.09	963.16	–	–	–
[2], x1 = 0.9	944.82	939.77	934.7	–	–	–
[2], x1 = 0.95	929.54	924.43	919.34	–	–	–
[2], x1 = 1	913.31	908.19	903.11	–	–	–

OCCOCCOCCO [triethylene glycol] + CCCOCCO
x2 = 0
Details	mass density, 293.15 K [kg/m3]	mass density, 298.15 K [kg/m3]	mass density, 303.15 K [kg/m3]	relative permittivity at zero frequency, 293.15 K	relative permittivity at zero frequency, 298.15 K	relative permittivity at zero frequency, 303.15 K
[1]	–	–	–	23.69	23.07	22.43
[2]	1123.74	1119.66	1115.83	–	–	–

OCCOCCOCCO [triethylene glycol]
Details	mass density, 293.15 K [kg/m3]	mass density, 298.15 K [kg/m3]	mass density, 303.15 K [kg/m3]	relative permittivity at zero frequency, 293.15 K	relative permittivity at zero frequency, 298.15 K	relative permittivity at zero frequency, 303.15 K
[3]	1123.74	1119.66	1115.83	–	–	–
[4]	–	–	–	23.69	23.07	22.43

OCCOCCO [diethylene glycol]
Details	mass density, 293.15 K [kg/m3]	mass density, 298.15 K [kg/m3]	mass density, 303.15 K [kg/m3]	relative permittivity at zero frequency, 293.15 K	relative permittivity at zero frequency, 298.15 K	relative permittivity at zero frequency, 303.15 K
[3]	1116.38	1113.03	1109.47	–	–	–
[4]	–	–	–	31.81	30.95	30.03
